Assays:
[1] = test system: Fusarium graminearum; format: cell-based; settings: ethanol as solvent; 500 uL medium lyophilized; HPLC can detect down to ng/sample
[2] = test system: Aspergillus parasiticus; format: cell-based

Question: With `COc1cc(/C=C/C(=O)N2CCCCC2)ccc1O` [Compound 1] as the compound, how does the “DON detection by HPLC analysis” value [1] read?
Answer: some DON was detected

Question: Which “DON detection by HPLC analysis” value [1] does the source give for `COc1cc(/C=C/C(=O)N2CCCC2)ccc1O` [Compound 2] here?
Answer: some DON was detected

Question: `COc1cc(/C=C/C(=O)N2CCCCC2=O)ccc1O` [Compound 3, (E)-1-(3-(4-hydroxy-3-methyoxyphenyl)acryloyl)piperidin-2-one] was tested. Which “reduction of aflatoxin levels” value ([2]; 25 ppm, liquid culture, TLC analysis) did it give?
Answer: up to 80%

Question: What about the “lowest effective concentration for reducing aflatoxin levels” value ([2]; liquid culture, TLC analysis) of the same compound?
Answer: 25 ppm

Question: What about the “DON detection by HPLC analysis” value [1] of the same compound?
Answer: not detected

Question: How did the “effect on aflatoxin accumulation in culture (in words)” value [2] turn out when `CCC=CCC=CCC=CCCCCCCCC(=O)N1CCCCC1` [Compound 7] was run?
Answer: reduced aflatoxin accumulation in culture, but the effect was inconsistent from one trial to the next

Question: What about the “DON detection by HPLC analysis” value [1] of the same compound?
Answer: not detected

Reference: US10450271B2 (priority 2014, dated 2019)
